Results: the NIST ThermoML archive (doi:10.1016/j.jct.2009.07.022)
Values joined by “and” are separate entries in the source; they are usually repeats but may differ in a detail not shown here. Equal values may be shown once.

Assays:
[1] = Crystal, Calculated from knudsen effusion weight loss
[2] = molar enthalpy of transition or fusion; details: 298.15 K; Crystal; Clausius-Clapeyron Eq with Heat Capacity

c1ccc(-c2cccc(-c3ccccc3)c2-c2ccccc2)cc1 [1,2,3-triphenylbenzene]
[1]
Details | vapor or sublimation pressure
373.15 K | 0.0001 kPa and 9.85e-05 kPa
375.03 K | 0.000124 kPa and 0.00012 kPa
377.27 K | 0.00016 kPa and 0.000158 kPa
379.15 K | 0.0002 kPa and 0.000199 kPa and 0.000195 kPa
381.02 K | 0.000244 kPa and 0.000247 kPa and 0.000237 kPa
383.27 K | 0.000316 kPa and 0.000305 kPa and 0.000301 kPa
385.27 K | 0.000384 kPa and 0.000369 kPa and 0.000365 kPa
387.12 K | 0.000458 kPa and 0.00046 kPa
389.05 K | 0.000548 kPa and 0.000555 kPa and 0.000543 kPa
391.28 K | 0.000733 kPa and 0.00073 kPa and 0.000715 kPa
393.1 K | 0.000871 kPa and 0.000865 kPa and 0.000872 kPa
394.98 K | 0.001033 kPa and 0.001062 kPa and 0.001027 kPa

Details | molar enthalpy of transition or fusion [kJ/mol]
[2] | 134
